One test addresses Human RPA (Homo sapiens (Human), UniProt P27694). The experiment in a line: EMSA of inhibition of RPA binding to ssDNA. Conditions: for IC50: 25 nM RPA, 34-base DNA, 4 parameter logistic fit, read-out: IC50 (μM) In vitro; for inhibition at 100 µM: read-out: inhibition at the highest concentration tested. As for the experimental part: Small molecule inhibitors were obtained from ChemDiv and resuspended in DMSO. Compound TDLR-505 was independently synthesized and structure confirmed by mass spectrometry analysis. Human RPA was purified using an E. coli over expression system as previously described (7). EMSAs were performed in 20 μL reactions containing 25 nM RPA, 25 nM 5′[^32P]-labeled 34-base […] DNA as previously described (7). The final concentration of DMSO was 1%.
(§1) Referring now to TABLE 1, the in vitro IC50 was determined by EMSA analysis as described in FIG. 1A. The cellular IC50 value was determined by treating H460 cells with the indicated compounds and analyzing annexinV/PI staining as described in Methods. The in vitro and cellular data was analyzed using standard 4 parameter logistic-curve. The IC50 values and standard error of the fit were determined from this analysis.
Referring now to FIGS. 2C, D and E, EMSA analysis of compound TDLR-505, briefly, increasing concentrations of compound TDRL-505 were pre-incubated with RPA and DNA binding activity was assessed via EMSA using a 34-base ssDNA substrate. Referring now to FIG. 2D, the average and standard deviation of each point are presented. The data was fit to a standard 4 parameter logistic curve with an N=4.

The subject of another test is H460 NSCLC cell line. Kind of test: Annexin V/PI flow cytometry, induction of cell death. It counts as cell-based, human. Conditions: H460 cells; for IC50: Homo sapiens, NCI-H460, 48 hour exposure, annexinV/PI staining, read-out: IC50 (μM) Cellular. As for the experimental part: H460 cells were analyzed for apoptosis using an Annexin V-FITC/Propidium iodide (PI) Vybrant Apoptosis Assay Kit (Invitrogen), according to manufacturer's instructions. Cells were plated at a density of 1×10^4 cells per cm^2 and allowed to adhere for 24 hours and then treated with compound TDLR-505 for 48 hours. Following plating and treatment of H460 cells as described above, adherent and non-adherent cells were collected, processed, and analyzed on a BD FACScan flow cytometer. Data was analyzed using WinMDI software (http://facs.scripps.edu/software.html). Cell cycle analysis was performed by PI staining Briefly, cells were plated and treated with compound collected and then washed twice with PBS-EDTA supplemented with 1% BSA. Cells were fixed in 70% EtOH at −20° C. while vortexing followed by incubation on ice for 30 minutes. Cells were then collected and stained with PI solution (10 μg/mL PI and 25 μg/mL RNaseA in PBS-EDTA supplemented with 1% BSA). Cells were analyzed on a Becton Dickinson FACScan flow cytometer. Cells were gated and analyzed on a histogram with events plotted against the FL2-A parameter. Cell cycle distribution was analyzed using ModFit software. G2 arrest was induced by treatment with 0.8 μg/mL nocodazole for 12 hours (10). Cells were then washed with PBS and treated with either vehicle or compound TDLR-505 (100 μM). Cells were harvested and analyzed for cell cycle distribution as described above.
as §1
Referring now to FIGS. 4A, 4B, 4C and 4D, the effects of compound TDRL-505 on induction of cell death and cell cycle progression in a H460 NSCLC cell line was measured. Briefly, H460 cells were treated with compound TDRL-505 for 48 hours and analyzed for cell viability via staining with AnnexinV/PI and presented as dot plots (see FIG. 3A). Referring now to FIG. 4B, the data from FIG. 4A was quantified and the percentage of Annexin-/PI-cells (lower left quadrant), indicating live cells, was calculated. The average±SD (N=4) are presented and the data was fit to a 4-parameter logistic curve.

Where only a bound is given, the exact number is not on record here.

Sequence of Human RPA (P27694 whole entry): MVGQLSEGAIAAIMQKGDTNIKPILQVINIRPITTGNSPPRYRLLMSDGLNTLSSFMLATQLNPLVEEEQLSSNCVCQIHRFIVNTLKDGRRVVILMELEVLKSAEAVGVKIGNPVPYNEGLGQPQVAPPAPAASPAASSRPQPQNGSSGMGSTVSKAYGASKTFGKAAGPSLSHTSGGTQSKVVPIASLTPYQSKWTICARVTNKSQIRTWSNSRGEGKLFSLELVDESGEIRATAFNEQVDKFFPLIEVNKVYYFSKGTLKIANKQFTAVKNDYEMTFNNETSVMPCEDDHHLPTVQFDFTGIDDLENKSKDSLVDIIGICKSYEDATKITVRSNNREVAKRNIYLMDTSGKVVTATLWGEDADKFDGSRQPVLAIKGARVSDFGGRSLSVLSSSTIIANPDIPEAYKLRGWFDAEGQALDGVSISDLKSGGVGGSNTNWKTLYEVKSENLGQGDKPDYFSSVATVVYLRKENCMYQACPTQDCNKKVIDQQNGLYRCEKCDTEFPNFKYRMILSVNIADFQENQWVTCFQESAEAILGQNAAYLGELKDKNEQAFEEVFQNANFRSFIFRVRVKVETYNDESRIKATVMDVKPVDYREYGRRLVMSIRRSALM
Sequence of Human RPA (P15927 whole entry partner): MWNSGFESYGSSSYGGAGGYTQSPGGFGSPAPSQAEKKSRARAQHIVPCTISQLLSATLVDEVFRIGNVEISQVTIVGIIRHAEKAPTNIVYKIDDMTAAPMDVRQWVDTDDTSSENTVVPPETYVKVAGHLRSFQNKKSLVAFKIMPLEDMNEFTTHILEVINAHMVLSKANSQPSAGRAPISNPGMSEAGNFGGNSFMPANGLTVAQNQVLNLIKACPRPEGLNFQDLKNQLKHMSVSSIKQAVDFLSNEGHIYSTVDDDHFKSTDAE
Sequence of Human RPA (P35244 whole entry partner): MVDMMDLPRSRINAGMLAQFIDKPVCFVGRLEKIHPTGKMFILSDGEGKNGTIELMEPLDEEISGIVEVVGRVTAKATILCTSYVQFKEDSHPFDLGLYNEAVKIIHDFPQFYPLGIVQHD

Take `CCN(CC)c1ccc(C2CC(c3ccc(Br)cc3)=NN2C(=O)CCC(=O)O)cc1` (stereo not shown) [TDRL-518]: on Human RPA, the IC50 was above 100 µM and the inhibition at 100 µM came to 9%.
Take `Cc1ccc(C2=NN(C(=O)CCC(=O)O)C(c3cn(-c4ccccc4)nc3-c3ccc(C)cc3)C2)cc1` (stereo not shown) [TDRL-520]: the IC50 at Human RPA was 20.3 ± 10.7 µM; in the test with H460 NSCLC cell line, 49.9 ± 2.5 µM.
`COc1ccc(C2=NN(C(=O)CCC(=O)O)C(c3cn(-c4ccccc4)nc3-c3ccc(C)cc3)C2)cc1` (stereo not shown) [TDRL-521]: the IC50 was 71.7 ± 33.9 µM at Human RPA and 56.9 ± 6.7 µM in the test on H460 NSCLC cell line.
The corresponding values for `Cc1ccc(-c2nn(-c3ccccc3)cc2C2CC(c3ccc(Br)cc3)=NN2C(=O)CCC(=O)O)cc1` (stereo not shown) [TDRL-522] are 56.1 ± 6.7 µM and 38 ± 32 µM.
Turning to `COc1ccc(-c2nn(-c3ccccc3)cc2C2CC(c3ccc(Br)cc3)=NN2C(=O)CCC(=O)O)cc1` (stereo not shown) [TDRL-523], on Human RPA, the IC50 was above 100 µM and the inhibition at 100 µM was determined as 36%. Besides, the “inhibition of RPA DNA binding (in words)” value at Human RPA (full length RPA heterotrimer) is “minimal inhibition”. Moreover, in the test with H460 NSCLC cell line, the “cellular activity (in words)” value is listed as “modest cellular activity” and the IC50 was 31 ± 5.2 µM.

The values are drawn from US9533969B2, “Materials and method for inhibiting replication protein A and uses thereof” (Indiana University Research and Technology Corp., priority 2010, dated 2017).
